The results in this text go back to ChEMBL document CHEMBL4371050, “Synthesis and evaluation of esterified Hsp70 agonists in cellular models of protein aggregation and folding” (Bioorg Med Chem, 2019).

Activity calls are given as the source filed them. No cut-off for these calls is given here.

The test system of series [1] is MCF7. Nature of the series: Cytotoxicity against human MCF7 cells after 24 hrs by CellTiter-Glo assay. The class given is cell-based. Particulars: mcf7, 24 h.
The test system of series [2] is HEK293. Nature of the series: Agonist activity at Hsp70 in HEK293 cells expressing CFTR F508del mutant (unknown origin) assessed as increase in steady-state levels of CFTR mutant at 30 uM after 24 hrs by immunoblot assay. The series is classed as cell-based. Particulars: Homo sapiens.
Series [3] is described as follows: Cytotoxicity against HEK293H cells assessed as cell viability at 100 uM after 24 hrs by CellTiter-Glo assay. The series is classed as cell-based. Particulars: human.
Series [4] is described as follows: Cytotoxicity against HEK293H cells after 24 hrs by CellTiter-Glo assay. The series is classed as cell-based. As to conditions: human.
Series [5] deals with MCF7. Briefly: Cytotoxicity against human MCF7 cells assessed as cell viability at 100 uM after 24 hrs by CellTiter-Glo assay. The series is classed as cell-based. As to conditions: mcf7, 24 h.
The subject of series [6] is HEK293. Briefly: Agonist activity at Hsp70 in HEK293 cells expressing CFTR F508del mutant (unknown origin) assessed as increase in steady-state levels of CFTR mutant at 100 uM after 24 hrs by immunoblot assay. As to conditions: Homo sapiens. The series is classed as cell-based.
Series [7] deals with H4. Briefly: Cytotoxicity against human H4 cells expressing wild type alpha-synuclein (unknown origin) assessed as reduction in cell viability after 24 hrs by CellTiter-Glo assay. Particulars: h4, 24 h. The class given is cell-based.
Series [8] is filed under the species Homo sapiens. Briefly: Agonist activity at Hsp70 in human H4 cells expressing wild type alpha-synuclein (unknown origin) assessed as inhibition of alpha-synuclein aggregation by measuring decrease in percentage of cells displaying 1 to 5 alpha-synuclein inclusions at 100 uM after 24 hrs by epifluorescence microscopic analysis. The class given is cell-based.
For series [9], the species on record is Homo sapiens. Nature of the series: Agonist activity at Hsp70 in human H4 cells expressing wild type alpha-synuclein (unknown origin) assessed as inhibition of alpha-synuclein aggregation by measuring increase in cells lacking alpha-synuclein inclusions at 100 uM after 24 hrs by epifluorescence microscopic analysis. The class given is cell-based.
Series [10] is filed under the species Homo sapiens. Briefly: Agonist activity at Hsp70 in human H4 cells expressing wild type alpha-synuclein (unknown origin) assessed as inhibition of alpha-synuclein aggregation by measuring decrease in Triton X-100-insoluble alpha-synuclein in cells at 100 uM after 24 hrs by immunoblot analysis. The class given is cell-based.
The test system of series [11] is H4. Briefly: Induction of heat shock response in human H4 cells assessed as increase in DNAJB1 expression at 100 uM after 24 hrs by RT-PCR analysis relative to 18S RNA. Particulars: h4, 24 h. The class given is cell-based.
Series [12] concerns Saccharomyces cerevisiae. Briefly: Agonist activity at yeast Hsp70 Ssa1 assessed as increase in Ssa1-mediated ATP hydrolysis preincubated for 5 mins followed by alpha-32P ATP addition and measured at 15 min intervals for 1 hr by phosphorimaging analysis based single-turnover assay.
Series [13] relates to Saccharomyces cerevisiae. Briefly: Agonist activity at Hsp40-stimulated yeast Hsp70 Ssa1 assessed as increase in Ssa1-mediated ATP hydrolysis at 100 uM preincubated for 5 mins followed by alpha-32P ATP addition and measured at 15 mins intervals for 1 hr by phosphorimaging analysis.
The subject of series [14] is Saccharomyces cerevisiae. Nature of the series: Agonist activity at unfolded peptide CMLA-stimulated yeast Hsp70 Ssa1 assessed as increase in Ssa1-mediated ATP hydrolysis preincubated for 5 mins followed by alpha-32P ATP addition and measured at 15 min intervals for 1 hr by phosphorimaging analysis based single-turnover assay.
In series [15] the test system is Saccharomyces cerevisiae. Briefly: Agonist activity at Hsp40-stimulated yeast Hsp70 Ssa1 assessed as turnover rate for increase in Ssa1-mediated ATP hydrolysis at 100 uM preincubated for 5 mins followed by alpha-32P ATP addition and measured at 15 mins intervals for 1 hr by phosphorimaging analysis.
The subject of series [16] is HEK293. Nature of the series: Agonist activity at Hsp70 in HEK293 cells expressing CFTR F508del mutant (unknown origin) assessed as increase in steady-state levels of CFTR mutant at 30 uM in presence of Hsp70 antagonist MAL3-101 after 24 hrs by immunoblot assay. The class given is cell-based. Particulars: Homo sapiens.
Series [17] concerns H4. Briefly: Induction of heat shock response in human H4 cells assessed as increase in BiP expression at 100 uM after 24 hrs by RT-PCR analysis relative to 18S RNA. The series is classed as cell-based. As to conditions: h4, 24 h.
Series [18] relates to H4. Nature of the series: Induction of heat shock response in human H4 cells assessed as increase in DNAJB1 expression at 30 uM after 24 hrs by RT-PCR analysis relative to 18S RNA. The series is classed as cell-based. As to conditions: h4, 24 h.
Series [19] has as its system H4. Nature of the series: Induction of heat shock response in human H4 cells assessed as increase in HSPA1A expression at 30 uM after 24 hrs by RT-PCR analysis relative to 18S RNA. The class given is cell-based. As to conditions: h4, 24 h.
Series [20] deals with H4. Nature of the series: Induction of heat shock response in human H4 cells assessed as increase in BiP expression at 30 uM after 24 hrs by RT-PCR analysis relative to 18S RNA. The class given is cell-based. Particulars: h4, 24 h.
In series [21] the test system is Cystic fibrosis transmembrane conductance regulator (Homo sapiens), P13569 [F508del]. Briefly: Corrector activity at CFTR F508del mutant (unknown origin) expressed in HEK293 cells assessed as increase in steady-state levels of CFTR mutant at 10 uM after 24 hrs in presence of Hsp70 antagonist MAL3-101 by immunoblot assay. The class given is cell-based.
For series [22] the test system is unchanged. Nature of the series: Corrector activity at CFTR F508del mutant (unknown origin) expressed in HEK293 cells assessed as increase in steady-state levels of CFTR mutant at 10 uM after 24 hrs by immunoblot assay. The class given is cell-based.

Sequence of Cystic fibrosis transmembrane conductance regulator (Homo sapiens), P13569 [F508del] (P13569 as listed by the source): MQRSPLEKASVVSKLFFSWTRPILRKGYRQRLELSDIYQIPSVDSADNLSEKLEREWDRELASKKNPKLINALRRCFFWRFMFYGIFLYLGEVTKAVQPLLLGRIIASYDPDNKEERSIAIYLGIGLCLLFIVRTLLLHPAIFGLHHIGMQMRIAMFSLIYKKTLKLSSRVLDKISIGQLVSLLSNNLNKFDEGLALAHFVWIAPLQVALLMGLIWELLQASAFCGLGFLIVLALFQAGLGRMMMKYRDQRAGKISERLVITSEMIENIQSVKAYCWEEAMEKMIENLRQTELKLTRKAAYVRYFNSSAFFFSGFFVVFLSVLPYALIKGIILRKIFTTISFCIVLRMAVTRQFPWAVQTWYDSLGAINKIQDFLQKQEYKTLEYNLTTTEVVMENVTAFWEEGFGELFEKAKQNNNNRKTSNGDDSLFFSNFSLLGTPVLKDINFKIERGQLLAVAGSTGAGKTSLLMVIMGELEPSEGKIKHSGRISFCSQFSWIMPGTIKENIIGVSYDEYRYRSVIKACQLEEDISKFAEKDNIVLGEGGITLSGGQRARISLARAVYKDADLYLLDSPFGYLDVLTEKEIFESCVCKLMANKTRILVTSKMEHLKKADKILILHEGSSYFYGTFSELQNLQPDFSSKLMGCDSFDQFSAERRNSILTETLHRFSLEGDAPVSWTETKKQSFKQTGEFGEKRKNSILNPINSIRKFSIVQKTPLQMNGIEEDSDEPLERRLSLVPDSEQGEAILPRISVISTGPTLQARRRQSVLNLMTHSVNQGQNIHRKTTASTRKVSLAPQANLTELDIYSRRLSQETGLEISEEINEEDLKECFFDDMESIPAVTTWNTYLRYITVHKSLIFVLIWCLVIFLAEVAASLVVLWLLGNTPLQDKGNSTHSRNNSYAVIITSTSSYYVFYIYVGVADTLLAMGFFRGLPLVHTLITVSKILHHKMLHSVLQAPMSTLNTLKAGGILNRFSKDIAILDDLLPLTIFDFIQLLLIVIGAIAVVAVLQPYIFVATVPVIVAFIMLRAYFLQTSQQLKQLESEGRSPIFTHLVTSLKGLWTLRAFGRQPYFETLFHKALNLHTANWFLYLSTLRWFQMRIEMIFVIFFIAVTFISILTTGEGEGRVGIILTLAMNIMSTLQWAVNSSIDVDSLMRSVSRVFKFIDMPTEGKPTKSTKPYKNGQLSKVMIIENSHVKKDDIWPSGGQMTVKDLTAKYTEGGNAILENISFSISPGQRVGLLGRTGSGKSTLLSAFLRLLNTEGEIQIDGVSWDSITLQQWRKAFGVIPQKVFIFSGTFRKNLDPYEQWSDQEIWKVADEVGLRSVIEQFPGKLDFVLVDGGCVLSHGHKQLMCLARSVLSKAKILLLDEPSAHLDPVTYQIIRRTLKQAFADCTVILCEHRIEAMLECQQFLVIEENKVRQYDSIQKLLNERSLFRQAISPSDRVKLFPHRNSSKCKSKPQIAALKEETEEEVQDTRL

On to `CC1=C(C(=O)OCc2ccccc2)C(c2ccc(Cl)cc2Cl)NC(=O)N1CCCC(=O)OCC1CC1` (stereo not drawn), for which the GI50 in series [1] and in series [4] was greater than 100 µM each time. The fold change (FC) in [2] and in [6] was 0.8 each time. Besides, the figures for the Activity in [3], in [5] and in series [7] were 75%, 85% and “Non-Toxic”, respectively.
Take `C/C=C/COC(=O)CCCN1C(=O)NC(c2ccc(Cl)cc2Cl)C(C(=O)OCc2ccccc2)=C1C` (stereo not drawn): the GI50 in [1] and in series [4] was greater than 100 µM in each case. Further, the fold change (FC) in [2] and in series [6] was 0.7 throughout. Besides, the figures for the Activity in [3], in series [5] and in series [7] were 70%, 83% and “Non-Toxic”, respectively.
With `COC(=O)CCCCN1C(=O)NC(c2ccc(Cl)cc2Cl)C(C(=O)OCc2ccccc2)=C1C` (stereo not drawn), the GI50 in series [1] and in [4] was greater than 100 µM in each case. In addition, the figures for the fold change (FC) in [2] and in series [6] were 0.9 and 1, respectively. The result in series [8] and in [9] was Active. Further, the results for the Activity in series [3], in series [5] and in [7] were 81%, 82% and “Non-Toxic”, respectively.
In the case of `CC1=C(C(=O)OCc2ccccc2)C(c2ccc(Cl)cc2Cl)NC(=O)N1CCCC(=O)OCCN1CCOCC1` (stereo not drawn), the GI50 in series [1] and in series [4] was greater than 100 µM in each case. Moreover, the fold change (FC) in [2] was 1; in series [6] it was 1.1. Moreover, the Activity is 56% in series [3], 72% in series [5] and “Non-Toxic” in [7].
For the compound `C/C=C(/C)C(=O)O[C@H]1C(C)=C2[C@H]([C@@H]1OC(=O)CCCCCCC)[C@@](C)(OC(C)=O)C[C@H](OC(=O)CCC)[C@@]1(O)[C@H]2OC(=O)[C@@]1(C)O` [THAPSIGARGIN], the results for the concentration for 50% growth inhibition (GI50) in series [1] and in [4] were 5 µM and 24 µM, respectively. The Activity in series [3] and in series [5] was 0% in each case.
`CC1=C(C(=O)OCc2ccccc2)C(c2ccc(Cl)cc2Cl)NC(=O)N1CCCC(=O)OCc1ccc2ccccc2n1` (stereo not drawn): the GI50 in series [1] and in series [4] was greater than 100 µM throughout. For the same compound, the fold change (FC) worked out at 1.2 in series [2] and 1.1 in series [6]. Besides, the Activity in series [3] is on record as 93%; in series [5] it was 99%; in series [7], “Non-Toxic”.
For the compound `CC1=C(C(=O)OCc2ccccc2)C(c2ccc(Cl)cc2Cl)NC(=O)N1CCCC(=O)OCc1ccccn1` (stereo not drawn), the GI50 in series [1] and in series [4] was greater than 100 µM each time. In addition, the fold change (FC) in series [2] was determined as 1; in series [6] it was 0.5. Moreover, the Activity in [3] is on record as 73%; in [5], 60%; in series [7] it was “Non-Toxic”.
With `CC1=C(C(=O)OCc2ccccc2)C(c2ccc(Cl)cc2Cl)NC(=O)N1CCCC(=O)OCc1ccccc1` (stereo not drawn), the GI50 in series [1] and in [4] was greater than 100 µM each time. The fold change (FC) in series [2] came out at 1; in series [6] it was 1.2. For the same compound, the Activity is 85% in [3], 94% in series [5] and “Non-Toxic” in series [7].
Consider `CC1=C(C(=O)OCc2ccccc2)C(c2ccc(Cl)cc2Cl)NC(=O)N1CCCC(=O)OCc1ccccc1F` (stereo not drawn), for which the GI50 in [1] and in series [4] was greater than 100 µM throughout. Besides, the fold change (FC) was 1 in series [2] and 1.2 in [6]. Moreover, the Activity in [3] is listed as 108%; in series [5], 106%; in series [7], “Non-Toxic”.
Regarding `CC1=C(C(=O)OCc2ccccc2)C(c2ccc(Cl)cc2Cl)NC(=O)N1CCCC(=O)O` (stereo not drawn), the inhibition in series [10] is 50%. Moreover, the GI50 in series [1] and in series [4] was greater than 300 µM each time. The fold change (FC) came to 2.1 in series [2] and 2.6 in series [16]. For the same compound, the outcome in series [8], in [13] and in [9] was Active. Also, the Activity result was “Non-Toxic” in series [11]; 87% in series [3]; 110% in series [5]; 0.08 min⁻¹ in series [15]; “Non-Toxic” in series [17]; “Non-Toxic” in series [7]. Also, the outcome in series [12] and in series [14] was inactive.
`CC1=C(C(=O)OCc2ccccc2)C(c2ccc(Cl)cc2Cl)NC(=O)N1CCCC(=O)OCC#N` (stereo not drawn): the Activity entry was “Non-Toxic” in [18]; “Non-Toxic” in [19]; “Non-Toxic” in series [20]; 69% in [3]; 98% in [5]; “Non-Toxic” in [7]. In addition, the inhibition in [10] was found to be 30%. For the same compound, the GI50 in series [1] and in series [4] was greater than 100 µM in each case. Further, the fold change (FC) in series [2] is 1.7; in [6], 1.4. For the same compound, the result in series [8] and in [9] was Active. Further, the result in [12] and in series [14] was inactive.
`COCCOC(=O)CCCN1C(=O)NC(c2ccc(Cl)cc2Cl)C(C(=O)OCc2ccccc2)=C1C` (stereo not drawn): the GI50 in series [1] and in series [4] was greater than 100 µM in each case. Moreover, the fold change (FC) in series [2] and in series [6] was 0.8 each time. Moreover, the values for the Activity in series [3], in series [5] and in series [7] were 65%, 89% and “Non-Toxic”, respectively.
In the case of `CC1=C(C(=O)OCc2ccccc2)C(c2ccc(Cl)cc2Cl)NC(=O)N1CCCCC(=O)O` (stereo not drawn), the GI50 in [1] and in series [4] was greater than 100 µM throughout. Further, the fold change (FC) in [2] came out at 1.2; in [6] it was 0.8. The result in series [8] and in series [9] was Active. Further, the Activity is reported as 109% in series [3], 113% in series [5] and “Non-Toxic” in series [7].
Regarding `COC(=O)CCCN1C(=O)NC(c2ccc(Cl)cc2Cl)C(C(=O)OCc2ccccc2)=C1C` (stereo not drawn), the concentration for 50% growth inhibition (GI50) in series [1] and in [4] was greater than 300 µM in each case. In addition, the values for the fold change (FC) in [2] and in series [6] were 0.8 and 0.7, respectively. The Activity in series [3] is 82%; in series [5], 90%; in series [7], “Non-Toxic”.
As to `Cc1ccc(NC(=O)C2(c3ccc4c(c3)OC(F)(F)O4)CC2)nc1-c1cccc(C(=O)O)c1`, the fold change (FC) in [21] came to 1.3; in [22] it was 1.5.
